Data from patent US20130045988A1, “COMBINATION THERAPY” (SHIRE AG, priority 2011, published 2013).
Several values for one entry are separate records, joined by “and”; a condition that tells them apart may be missing. Equal values may be shown once. Entries after “also recorded” stand apart in the source; their conditions may differ. Read-outs that look alike come from different tables or passages of the source.

What was measured:
[1] = tested on: pig gastric circular muscle strips; assay: EFS-induced submaximal cholinergic contractions of gastric circular muscle strips
[2] = tested on: cholinergic neurons innervating pig gastric circular muscle; assay: EFS-induced acetylcholine release (total radioactivity/tritium outflow) from pig gastric circular muscle strips
[3] = tested on: pig colon descendens circular muscle; assay: EFS-induced submaximal cholinergic contractions of colon circular muscle strips; settings: for influence on the facilitating effect of prucalopride on cholinergic neurotransmission: PDE inhibitor before prucalopride, data not shown; for effect on EFS-induced cholinergic contractions: cumulative half log unit increasing concentrations, IBMX effect range 1-30 μM
Description: Young male pigs (10-12 weeks, 15-25 kg-breed Line 36) were obtained from […], Belgium. On the morning of the experiment, pigs were anaesthetized with an intramuscular injection of 5 ml Zoletil 100 (containing 50 mg/ml tiletamine and 50 mg/ml zolazepam; Virbac Belgium S.A., Belgium). […] The aerated (5% CO2/95% O2) Krebs-Henseleit solution in the organ baths (see example 11) systematically contained 4 μM of the noradrenergic neuron blocker guanethidine and 0.3 mM of the NO synthase inhibitor Nω-nitro-L-arginine methyl ester hydrochloride (L-NAME) to avoid noradrenergic and […] responses respectively. After 60 min of stabilization with refreshing of the Krebs-Henseleit solution every 15 min, strips were contracted with the muscarinic receptor agonist carbachol (3 μM). This procedure was repeated with a 20-min washout period in between. […] NK3, 0.3 μM SB222200) were added and incubated for 30 min before the first electrical stimulation. […] Strips were then stimulated for 1 hour (12 stimulations) with 5 min interval at supramaximal voltage (35 V) (10 s trains; 0.25 ms pulse duration; frequency of 4 Hz). […] The protocols as described in examples 12 and 13 then started. […] Changes in isometric tension were measured using MLT 050/D force transducers (ADInstruments, United Kingdom) and recorded on a PowerLab/8sp data recording system (ADInstruments, United Kingdom) with Chart v5.5.6 software. The obtained data were analysed as follows: […] Results are expressed as means±S.E.M., n referring to tissues from different animals except when otherwise indicated. Statistical analysis was performed by use of Graphpad Prism […]<0.05 was considered statistically significant. When adding PDE inhibitors cumulatively, the last contraction in the presence of each concentration was compared to the reference by repeated measures ANOVA followed by a Bonferroni corrected t-test. […] A cumulative concentration-response curve for the different PDE inhibitors was obtained by adding them in half log unit increasing concentrations, starting after 5 reproducible contractions at V50% had been obtained and registering the responses to 6 trains (30 min) after adding each concentration. Parallel to the cumulative concentration-response curve of rolipram, an isolated concentration-response curve was obtained by adding one single concentration per tissue in 3 animals. […] The solvents DMSO and ethanol were tested separately by adding them cumulatively in the matching dilutions as for the cumulative concentration series of the corresponding PDE inhibitor.

PDE = settings: Beavo and Reifsnyder, 1990; read-out: IC50 range; cited from earlier work
[4] = prucalopride 0.03, 0.1 or 0.3 μM

Structure (SMILES): CN1[C@@H]2CC[C@H]1C[C@@H](OC(=O)C(CO)c1ccccc1)C2 (some centres unmarked) [atropine]
- effect on EFS-induced contractions at V50% C [1]: abolished

Structure (SMILES): COc1ccc(C2CNC(=O)C2)cc1OC1CCCC1 (centres unmarked) [rolipram]
- mean contractile response to the 10th stimulation train, % of response before administration ([1]; 1 μM rolipram alone, before adding prucalopride, three tissue groups): 114±8% and 115±8% and 122±9%
- individual contractile response to the 10th stimulation, % of response before administration ([1]; 1 μM rolipram alone, single tissues of the group later given 0.03 μM prucalopride): 96% and 111% and 137% and 155% and 93% and 102% and 101% and 128%
- influence on submaximal cholinergic contractions ([1]; 1-30 μM): did not significantly influence the submaximal cholinergic contractions
- influence on basal tritium outflow ([2]; PDE inhibitor alone, 1 μM): None of these PDE-inhibitors alone influenced basal tritium outflow
- effect on EFS-induced contractions ([3]; 3 μM rolipram, before prucalopride is added): did not enhanced the EFS-induced contractions
- effect on EFS-induced contractions ([3]; 0.1 and 0.3 μM rolipram): significant increase of the EFS-induced contractions

Structure (SMILES): CCCCCC[C@@H]([C@@H](C)O)n1cnc2c(N)ncnc21 (racemic) [EHNA]
- influence on submaximal cholinergic contractions ([1]; 1-30 μM): did not significantly influence the submaximal cholinergic contractions
- S2/S1 ratio of EFS-induced total radioactivity outflow ([2]; 10 μM EHNA alone): 0.51±0.05
- influence on basal tritium outflow ([2]; PDE inhibitor alone, 10 μM): did not influence basal
- influence on the facilitating effect of prucalopride on cholinergic neurotransmission [3]: did not influence the facilitating effect of prucalopride on cholinergic neurotransmission

Structure (SMILES): CCOC(=O)C1=C[C@]2(CC)CCCN3CCc4c(n1c1ccccc41)[C@@H]32 [vinpocetine]
- influence on submaximal cholinergic contractions ([1]; vinpocetine 0.01-10 μM): did not significantly influence the submaximal cholinergic contractions
- influence on basal tritium outflow ([2]; PDE inhibitor alone, 10 μM): None of these PDE-inhibitors alone influenced basal tritium outflow
- influence on the facilitating effect of prucalopride on cholinergic neurotransmission [3]: did not influence the facilitating effect of prucalopride on cholinergic neurotransmission

Structure (SMILES): COCCCN1CCC(NC(=O)c2cc(Cl)c(N)c3c2OCC3)CC1 [prucalopride, 4-amino-5-chloro-2,3-di-hydro-N-[r-(3-methoxypropyl)-4-piperidinyl]-7-benzo-furan-carboxamide]
- electrically induced contractions, % of mean of 5 contractions before ([1]; 0.01 μM prucalopride alone): 162±11%
- electrically induced contractions, % of mean of 5 contractions before ([1]; 0.03 μM prucalopride alone): 171±15%
- electrically induced contractions, % of mean of 5 contractions before ([1]; 0.1 μM prucalopride alone): 206±10%
- effect on amplitude of the EFS-induced contractions [1, 4]: progressively enhanced the amplitude of the EFS-induced contractions
- influence on basal tone of the strips [1, 4]: did not influence the basal tone of the strips
- S1, EFS-induced outflow of total radioactivity above baseline [2]: 68328 ± 11006 dpm g^−1 tissue and 91698 ± 24563 dpm g^−1 tissue and 61343 ± 11445 dpm g^−1 tissue and 50543 ± 3791 dpm g^−1 tissue
- S2, EFS-induced outflow of total radioactivity above baseline ([2]; 0.03 μM prucalopride added 15 min before S2): 62398 ± 8272 dpm g^−1 tissue
- influence on EFS-induced tritium outflow ([2]; 0.03 μM prucalopride alone): enhanced EFS-induced tritium outflow
- S2, EFS-induced outflow of total radioactivity above baseline ([2]; 0.1 μM prucalopride added 15 min before S2): 91877 ± 21668 dpm g^−1 tissue
- S2, EFS-induced outflow of total radioactivity above baseline ([2]; 0.3 μM prucalopride added 15 min before S2): 61498 ± 9813 dpm g^−1 tissue and 52591 ± 2950 dpm g^−1 tissue
- influence on basal tritium outflow ([2]; prucalopride 0.03, 0.1 and 0.3 μM): did not influence the basal outflow
- effect on EFS-induced cholinergic submaximal contractions ([3]; 1 μM prucalopride): systematically enhanced EFS-induced cholinergic submaximal contractions

Structure (SMILES): CC(C)Cn1c(=O)n(C)c(=O)c2[nH]cnc21 [IBMX, 3-isobutyl-1-methyl-xanthine]
- EFS-induced contractions decreased maximally to % of response before ([1]; 3 μM IBMX, piglets): 84±2%
- effect on EFS-induced cholinergic contractions ([1]; 30 μM IBMX): nearly abolished
- effect on amplitude of the EFS-induced cholinergic contractions ([1]; IBMX, half log unit ascending concentrations): concentration-dependent reduction of the amplitude of the EFS-induced cholinergic contractions from 3 μM onwards
- influence on EFS-induced tritium outflow ([2]; IBMX 10 μM alone): nor did it influence EFS-induced tritium outflow; also recorded: did not significantly influence EFS-induced tritium outflow
- influence on basal tritium outflow ([2]; PDE inhibitor alone, 10 μM): did not influence basal
- effect on EFS-induced cholinergic contractions [3]: concentration-dependently inhibited EFS-induced cholinergic contractions
- IC50 (PDE): 2 to 50 µM

Structure (SMILES): O=C(Nc1c(Cl)cncc1Cl)c1ccc(OC(F)F)c(OCC2CC2)c1 [roflumilast]
- S2/S1 ratio of EFS-induced total radioactivity outflow ([2]; 0.3 μM roflumilast alone, 36 min before S2): 0.85±0.02

Structure (SMILES): CC(C)n1c(=O)c(C(=O)N[C@H]2C[C@H]3CC[C@@H](C2)N3C[C@@H](O)CN(C)S(C)(=O)=O)cc2ccccc21 [velusetrag]
- S2/S1 ratio of EFS-induced total radioactivity outflow [2]: 0.7±0.03

Structure (SMILES): NC1=N[C@H](O)[C@H]2[C@H]3O[C@]4(O)O[C@@H]([C@@H](O)[C@@]2(N1)[C@@H]4O)[C@]3(O)CO [tetrodotoxin]
- effect on EFS-induced contractions at V50% C [1]: abolished

Structure (SMILES): CN(C(=O)CCCOc1ccc2[nH]c(=O)ccc2c1)C1CCCCC1 [cilostamide]
- contraction at the 10th stimulation train, % of the response before ([1]; 1 μM cilostamide alone): 59±13%
- activity at 3 µM ([1]; Sus scrofa, 3 μM cilostamide, maximal depression, read-out: EFS-induced contraction, reduction to % of response before PDE-inhibitor): 68 ± 11%
- influence on submaximal cholinergic contractions ([1]; cilostamide 0.01-10 μM): reduced the contractions from 0.1 μM onwards
- influence on basal tritium outflow ([2]; PDE inhibitor alone, 1 μM): None of these PDE-inhibitors alone influenced basal tritium outflow
- potency versus IBMX in inhibiting EFS-induced cholinergic contractions [3]: about 100 times
- inhibition at 0.03 µM ([3]; Sus scrofa, 0.03 μM cilostamide): 75%
- effect on EFS-induced cholinergic contractions [3]: concentration-dependently inhibited EFS-induced cholinergic contractions

Structure (SMILES): Cn1cc(C(=O)OCC2CCN(CCNS(C)(=O)=O)CC2)c2ccccc21 [GR113808]
- influence per se on EFS-induced contractions ([1]; GR113808 1, 10 and 100 nM): did not influence the EFS-induced contractions
- influence on the facilitating effect of prucalopride on EFS-induced contractions ([1]; GR113808 1, 10 and 100 nM versus 0.3 μM prucalopride): concentration-dependently inhibited the facilitating effect of 0.3 μM prucalopride
- S2, EFS-induced outflow of total radioactivity above baseline ([2]; 1 nM GR113808 added 21 min before 0.3 μM prucalopride): 43860 ± 4122 dpm g^−1 tissue
- S2/S1 ratio of EFS-induced total radioactivity outflow ([2]; 1 nM GR113808 followed by 0.3 μM prucalopride): 1.05 ± 0.08
- S2, EFS-induced outflow of total radioactivity above baseline ([2]; 10 nM GR113808 added 21 min before 0.3 μM prucalopride): 39273 ± 9533 dpm g^−1 tissue
- S2/S1 ratio of EFS-induced total radioactivity outflow ([2]; 10 nM GR113808 followed by 0.3 μM prucalopride): 0.86 ± 0.04
- S2, EFS-induced outflow of total radioactivity above baseline ([2]; 100 nM GR113808 added 21 min before 0.3 μM prucalopride): 47590 ± 8293 dpm g^−1 tissue
- S2/S1 ratio of EFS-induced total radioactivity outflow ([2]; 100 nM GR113808 followed by 0.3 μM prucalopride): 0.74 ± 0.05
- influence on basal tritium outflow ([2]; GR113808 1, 10, 100 nM): did not influence basal tritium outflow
- influence on the facilitating effect of prucalopride on EFS-induced acetylcholine release ([2]; GR113808 1, 10, 100 nM versus 0.3 μM prucalopride): concentration-dependently antagonized the facilitating effect of 0.3 μM prucalopride
- S1, EFS-induced outflow of total radioactivity above baseline ([2]; first stimulation S1, before drugs, tissues given 1 nM GR113808 then 0.3 μM prucalopride): 42314 ± 3744 dpm g^−1 tissue
- S1, EFS-induced outflow of total radioactivity above baseline ([2]; first stimulation S1, before drugs, tissues given 10 nM GR113808 then 0.3 μM prucalopride): 45180 ± 10235 dpm g^−1 tissue
- S1, EFS-induced outflow of total radioactivity above baseline ([2]; first stimulation S1, before drugs, tissues given 100 nM GR113808 then 0.3 μM prucalopride): 49850 ± 8210 dpm g^−1 tissue
